{
  "source": "patent US20220177484A1",
  "about": "“MACROCYCLES WITH ANTIOXIDANT AND NEUROPROTECTIVE ACTIVITIES” (INSTITUTO BIOMAR, S.A, priority 2019, published 2022)",
  "key": {"[1]": {"test_system": "cortical primary neurons (from C57BL6/J mice)", "assay": "Caspase-3 activity (neuronal apoptosis) after excitotoxic NMDA stimulus", "assay_type": "cell-based", "settings": "100 μM NMDA 10 min, then 24 h with compound 0.1, 1, 5 μM (FIG. 6)", "procedure": "(§1) For NMDA receptors activation, neurons at 8 days in vitro were incubated with 100 μM NMDA for 10 minutes. Neurons were then washed and further incubated for 24 hours in culture medium with DMSO only (DMSO empty bar), DMSO and NMDA (DMSO filled bar) and with increasing quantities of GKK1032C, GKK1032, Pyrrocidine B, CL0661, CL0665, CL0667 and CL0670. Concentrations of 0.1 μM, 1 μM, 5 μM. *: pvalue <0.05 vs. DMSO+NMDA (student's test).\n(§2) Experiments were performed in […] cortical primary neurons, obtained as was previously described (Herrero-Mendez A. et al., Nat. Cell. Biol. 11:747-752, 2009). After 7 or 8 days in B27-MAO culture, neurons (from C57BL6/J mice) were incubated in the presence of N-methyl-D-aspartate (NMDA, a H2O2 production promoter; 100 μM) for 10 minutes, followed by a PBS washing step and submitted to a 24-hour B27 incubation step in the absence (DMSO) or presence of increasing amounts of GKK1032C, GKK1032, Pyrrocidine B, Pyrrocidine A, CL0661, CL0665, CL0667 and CL0670 (0.1 μM, 1 μM and 5 μM). B27-MAO stands for Neurobasal medium, supplemented with B27 supplement in the absence of antioxidants (minus antioxidants, MAO).\nNeuronal apoptosis was determined by measuring caspase-3 activity (Veas-Perez de Tudela et al. Sci Rep 5:18180; doi:10.1038/srep18180 (2015).\n(§3) The data are presented as the mean values±standard deviation of the mean from n=3."}, "[2]": {"test_system": "SH-SY5Y human neuroblastoma cells expressing EGFP-alphasynuclein-A53T", "assay": "Mutated α-synuclein aggregation in transfected SH-SY5Y cells", "assay_type": "cell-based", "settings": "5 μM, 24 h", "procedure": "Mutated α-synuclein protein aggregation are indicated by white arrows, GFP α-synuclein protein (green) and β-tubulin (red). The images were acquired using the Operetta CLS automated confocal microscope, using the 40× water immersion objective.\nSH-SY5Y human neuroblastoma cells were maintained in Dulbecco's modified Eagle's medium (DMEM) supplemented with 10% fetal bovine serum (FBS), 2 mM L-glutamine and 100 U/mL penicillin-0.1 mg/mL streptomycin at 37° C. and 5% CO2.\nTo study the effect of compounds on mutated huntingtin and synuclein that accumulates in cells, SH-SY5Y were transfected with a constitutively active mutated-huntingtin expression vector pEGFP-Q74 (encoding EGFP protein fused to a fragment of huntingtin corresponding to the exon 1 with 74 CAG repeats; c.54GCA[74]; Addgene; #40262) and EGFP-alphasynuclein-A53T (Addgene; #40823).\nFor transfection assays, cells were seeded (30×10^3 cells/cm^2) on 96-multiwell plates (coated with poliornitine-fibronectine). Cells were transfected with 0.3 μg pEGFP-Q74 plasmid using LTX with Plus Reagent according to the manufacturer's instructions (Thermo Fisher). After 24-h, the medium was changed with a new one, and cells were treated with increasing amounts of GKK1032C and CL0670 (0.1 μM, 1 μM and 5 μM) or DMSO (control cells) for 24 h at 37° C. […]"}, "[3]": {"test_system": "cortical primary neurons (from C57BL6/J mice)", "assay": "H2O2 production in neurons after excitotoxic NMDA stimulus (Amplex Red)", "assay_type": "cell-based", "settings": "100 μM NMDA 10 min, then compound 0.1, 1, 5 μM (FIG. 5)", "procedure": "as §1, with “4” for “24”, “Pyrrocidine A, Pyrrocidine” for “Pyrrocidine”, “CL0661,” for “CL0661, CL0665,”, “p-value” for “pvalue”\nas §2\nThe release of H2O2 was measured using the fluorescent method Amplex© Red hydrogen peroxide/peroxidase assay kit (Invitrogen, catalog number A22188) using a multiwell fluorescence reader (Varioskan, Thermo Scientific).\nas §3"}, "C57BL6/J male mice [4]": {"test_system": "C57BL6/J male mice", "assay": "Rotarod test after Middle Cerebral Artery occlusion (stroke model)", "assay_type": "in vivo", "settings": "GKK1032C and CL0670 10 mg/kg intravenously (jugular vein) after 30 min occlusion; rotarod 24 hours after reanimation; untreated stroke impairment ˜75%", "from_the_text": "Middle Cerebral Artery occlusion involves temporarily or permanently restricting MCA blood flow to the cortex and striatum. The cerebral ischemic model of stroke is commonly used to assess ischemic injury in the brain. Occlusion of the middle cerebral artery (MCA) leads to a reduction of cerebral blood flow in both the striatum and the cortex. It is a highly reproducible model that results in brain damages similar to those occurring in human stroke.\nCompounds GKK1032C and CL0670 were administered intravenously at a dose of 10 mg/kg. 11-week old C57BL6/J male mice were divided into 3 groups of 7 mice each: mice submitted to Middle Cerebral Artery occlusion (ischemia), mice submitted to Middle Cerebral Artery occlusion and administration of GKK1032C and CL0670.\nAll mice were firstly trained in the rotarod for 3 consecutive days. After this period, the mice were put to sleep with sevoflurane and submitted to surgery. Occlusion was performed by maintain the surgical filament occluding the middle cerebral artery for 30 minutes. Once removed, GKK1032C and CL0670 were injected at the jugular vein. 24 hours after reanimation, the animals were submitted to the rotarod test."}, "C57BL6/J male mice [5]": {"test_system": "C57BL6/J male mice", "assay": "Open field test in 3-nitropropionic acid chemical model of Huntington's disease", "assay_type": "in vivo", "settings": "mice injected with GKK1032C and CL0670, once-daily 150 mg/kg (FIG. 16)", "procedure": "GKK1032C and CL0670 injections were performed at day 1, day 2 and day 3. 3-nitropropionic acid injections were performed at days 1, 1.5, 2, 2.5, 3 and 3.5. The shown data points were obtained 4 hours after the injections. p-value<0.05 vs. control (student's test).\nA chemical model of Huntington's disease was conducted to evaluate the capacity of compound I and CL0670 in protecting neurons. This is achieved by intraperitoneal injection of 3-nitropropionic acid which induces neuronal oxidative stress by inhibiting the succinate dehydrogenase enzyme.\n8-weeks old C57BL6/J male mice were divided into 4 groups.\nMice in group I (4 mice) were injected with GKK1032C and CL0670 (once-daily dose of 150 mg/kg for 3 days).\nMice in group II (5 mice) were injected with GKK1032C and CL0670 (once-daily dose of 150 mg/kg for 3 days) and with 3-nitropropionic acid (twice daily dose of 50 mg/kg for 3 days). In the case of group II, 3-nitropropionic acid was injected two hours and twelve hours after injection with GKK1032C and CL0670.\nMice in group III (5 mice) were injected with 3-nitropropionic acid (twice daily dose of 50 mg/kg for 3 days).\nMice in group IV (6 mice) were injected with vehicle only."}},
  "data": [
    {"smiles": "C=CC1(C)C=C(C)C2C3C(Oc4ccc(cc4)CC4C(=O)NC(O)C4C(=O)C31)C1C(C)CC(C)CC21C", "note": "(stereo not drawn) [CL0670]", "values": [
      {"measurement": "neuronal apoptosis (caspase-3 activity) after NMDA", "setting": "[1]", "result": "effective in protecting neuron cells against apoptosis"},
      {"measurement": "mutated synuclein and number of aggregates", "setting": "[2]", "result": "significantly decreased"},
      {"measurement": "H2O2 production in neuron cells after NMDA", "setting": "[3]", "result": "successful in preventing H2O2 from being produced"},
      {"measurement": "recovery of motor coordination (rotarod) of mice with stroke", "setting": "C57BL6/J male mice [4]", "result": "~17", "unit": "%"},
      {"measurement": "number of line crossings (open field), 3-nitropropionic acid model", "setting": "C57BL6/J male mice [5]", "result": "increased"},
      {"measurement": "time spent in central square of the arena (open field), 3-nitropropionic acid model", "setting": "C57BL6/J male mice [5]", "result": "increased"}
    ]},
    {"smiles": "C=CC1(C)C=C(C)C2C3C(Oc4ccc(cc4)CC4(O)NC(=O)C5(OC45)C(=O)C31)C1C(C)CC(C)CC21C", "note": "(stereo not drawn) [Compound I]", "values": [
      {"measurement": "neuronal apoptosis (caspase-3 activity) after NMDA", "setting": "[1]", "result": "effective in protecting neuron cells against apoptosis"},
      {"measurement": "mutated synuclein and number of aggregates", "setting": "[2]", "result": "significantly decreased"},
      {"measurement": "H2O2 production in neuron cells after NMDA", "setting": "[3]", "result": "successful in preventing H2O2 from being produced"},
      {"measurement": "recovery of motor coordination (rotarod) of mice with stroke", "setting": "C57BL6/J male mice [4]", "result": "~17", "unit": "%"},
      {"measurement": "number of line crossings (open field), 3-nitropropionic acid model", "setting": "C57BL6/J male mice [5]", "result": "increased"},
      {"measurement": "time spent in central square of the arena (open field), 3-nitropropionic acid model", "setting": "C57BL6/J male mice [5]", "result": "increased"}
    ]}
  ]
}
